Measurements from patent publication US3939144A, “Manufacture of N-(benzenesulfonyl)-5-O-desosaminyl-erythromycilamine derivatives” (Pliva, Pharmaceutical and Chemical Works, priority 1974, dated 1976).
Converted amounts (≈) assume the structure as drawn.

What was measured:
Type in all cases: cell-based
Details in all cases: compound alone
E.coli 7920 = assay: Preliminary bacteriological tests, MIC, E.coli 7920
E.coli 8141 = assay: Preliminary bacteriological tests, MIC, E.coli 8141
Strept.haem. = assay: Preliminary bacteriological tests, MIC, Strept.haem.

Row | MIC (E.coli 7920) | MIC (E.coli 8141) | MIC (Strept.haem.) | SMILES
1 | 250 µg/mL (≈ 314 µM) | 500 µg/mL (≈ 628 µM) | 62.2 µg/mL (≈ 78.2 µM) | CCC1OC(=O)C(C)C(O)C(C)C(OC2OC(C)CC(N(C)C)C2O)C(C)(O)CC(C)C(NS(=O)(=O)c2ccc(Br)cc2)C(C)C(O)C1(C)O (stereo not drawn) [DEASBr, N-(4-bromo-benzenesulfonyl)-5 -O-desosaminyl-erythromycilamine]
2 | 250 µg/mL (≈ 333 µM) | 250 µg/mL (≈ 333 µM) | 125 µg/mL (≈ 166 µM) | CCC1OC(=O)C(C)C(O)C(C)C(OC2OC(C)CC(N(C)C)C2O)C(C)(O)CC(C)C(NS(=O)(=O)c2ccc(Cl)cc2)C(C)C(O)C1(C)O (stereo not drawn) [DEASCl, N-(4-chloro-benzenesulfonyl)-5 -O-desosaminyl-erythromycilamine]
3 | 125 µg/mL (≈ 171 µM) | 125 µg/mL (≈ 171 µM) | 62.2 µg/mL (≈ 85 µM) | CCC1OC(=O)C(C)C(O)C(C)C(OC2OC(C)CC(N(C)C)C2O)C(C)(O)CC(C)C(NS(=O)(=O)c2ccc(N)cc2)C(C)C(O)C1(C)O (stereo not drawn) [DEASNH2, N-(4-amino-benzenesulfonyl)-5-0-desosaminyl-erythromycilamine]
4 | 125 µg/mL (≈ 171 µM) | 125 µg/mL (≈ 171 µM) | 62.2 µg/mL (≈ 85.1 µM) | CCC1OC(=O)C(C)C(O)C(C)C(OC2OC(C)CC(N(C)C)C2O)C(C)(O)CC(C)C(NS(=O)(=O)c2ccc(C)cc2)C(C)C(O)C1(C)O (stereo not drawn) [DEAST, N-(4-methyl-benzenesulfonyl)-5 -O-desosaminyl-erythromycilamine]
